Results as given in ChEMBL document CHEMBL3885861, “Open TG-GATES”.

Organism: Rattus norvegicus
Experiment: Open TG-GATES - Regimen: Single
Assay type: toxicity, organism-based, Sprague-Dawley
Design: regimen Single, gender Male, age 6 weeks
Conditions: in vivo, po, route gavage; for APTT / Bas / Eos / Fbg / Hb / Ht / Lym / MCH / MCHC / Mono / Neu / PT / Plat / RBC / Ret / WBC / MCV: tissue Blood; for KIDNEY_L / KIDNEY_R / KIDNEY_TOTAL: tissue Kidney; for LIVER: tissue Liver; for ALP / ALT / AST / BUN / CRE / Ca / Cl / DBIL / GLC / IP / K / LDH / Na / PL / RALB / TBIL / TC / TG / TP / gamma-GTP: tissue Plasma
[1] = 0 mg/kg, 3 h, dose level Control
[2] = 0 mg/kg, 6 h, dose level Control
[3] = 0 mg/kg, 9 h, dose level Control
[4] = 0 mg/kg, 24 h, dose level Control
[5] = 300 mg/kg, 24 h, dose level Low

## CCOc1ccc(NC(C)=O)cc1 [PHENACETIN]
[1]
  TERMINAL_BW: 210.2 g
  APTT: 17.4 s
  Bas: 0%
  Eos: 0.6%
  Fbg: 292 mg/dL
  Hb: 13.3 g/dL
  Ht: 40.2%
  Lym: 78.2%
  MCH: 20.7 pg
  MCHC: 33%
  Mono: 3%
  Neu: 17.8%
  PT: 13.7 s
  Plat: 114.8 x10_4/uL
  RBC: 641.4 x10_4/ul
  Ret: 8.1%
  WBC: 96.3 x10_2/uL
  KIDNEY_L: 0.9 g
  KIDNEY_R: 0.9 g
  KIDNEY_TOTAL: 1.8 g
  LIVER: 9.1 g
  ALP: 1765 IU/L
  ALT: 39.6 IU/L
  AST: 74.4 IU/L
  BUN: 11.6 mg/dL
  CRE: 0.2 mg/dL
  Ca: 11.1 mg/dL
  Cl: 105.4 meq/L
  DBIL: 0 mg/dL
  GLC: 169 mg/dL
  IP: 8.8 mg/dL
  K: 4.2 meq/L
  LDH: 115.4 IU/L
  Na: 142.2 meq/L
  PL: 153.4 mg/dL
  RALB: 2.5 g/dL
  TBIL: 0.05 mg/dL
  TC: 87.8 mg/dL
  TG: 53.2 mg/dL
  TP: 5.4 g/dL
  gamma-GTP: 1.8 IU/L
[2]
  TERMINAL_BW: 211 g
  APTT: 18.2 s
  Bas: 0.4%
  Eos: 1%
  Fbg: 290.8 mg/dL
  Hb: 13.6 g/dL
  Ht: 40.8%
  Lym: 76.2%
  MCH: 20.7 pg
  MCHC: 33.4%
  MCV: 62.2 fL
  Mono: 2.6%
  Neu: 19.4%
  PT: 14.1 s
  Plat: 119.9 x10_4/uL
  RBC: 656.6 x10_4/ul
  Ret: 7.6%
  WBC: 104.2 x10_2/uL
  KIDNEY_L: 0.9 g
  KIDNEY_R: 1 g
  KIDNEY_TOTAL: 1.9 g
  LIVER: 8.7 g
  ALP: 1471.4 IU/L
  AST: 74.4 IU/L
  BUN: 9.6 mg/dL
  CRE: 0.2 mg/dL
  Ca: 11 mg/dL
  Cl: 106 meq/L
  DBIL: 0 mg/dL
  GLC: 171.6 mg/dL
  IP: 9.3 mg/dL
  K: 4.1 meq/L
  LDH: 73.8 IU/L
  Na: 144 meq/L
  PL: 142 mg/dL
  RALB: 2.5 g/dL
  TBIL: 0.052 mg/dL
  TC: 78.8 mg/dL
  TG: 50 mg/dL
  TP: 5.4 g/dL
  gamma-GTP: 1.4 IU/L
[3]
  TERMINAL_BW: 210.5 g
  APTT: 17.7 s
  Bas: 0.2%
  Eos: 0.8%
  Fbg: 302.8 mg/dL
  Hb: 13.2 g/dL
  Ht: 39.7%
  Lym: 77.4%
  MCH: 21.6 pg
  MCHC: 33.3%
  MCV: 64.9 fL
  Mono: 2.6%
  PT: 13.7 s
  Plat: 116.6 x10_4/uL
  RBC: 611.4 x10_4/ul
  Ret: 8.6%
  WBC: 81.1 x10_2/uL
  KIDNEY_L: 0.9 g
  KIDNEY_R: 0.9 g
  KIDNEY_TOTAL: 1.9 g
  LIVER: 8.4 g
  ALP: 1519.6 IU/L
  ALT: 36.8 IU/L
  AST: 75.4 IU/L
  BUN: 9.2 mg/dL
  CRE: 0.2 mg/dL
  Ca: 10.9 mg/dL
  DBIL: 0.002 mg/dL
  GLC: 163.6 mg/dL
  IP: 9.8 mg/dL
  K: 4 meq/L
  LDH: 75.8 IU/L
  Na: 143.4 meq/L
  PL: 145.6 mg/dL
  RALB: 2.5 g/dL
  TBIL: 0.066 mg/dL
  TC: 81.6 mg/dL
  TG: 44.2 mg/dL
  TP: 5.4 g/dL
  gamma-GTP: 1.2 IU/L
[4]
  TERMINAL_BW: 226.9 g
  APTT: 17.2 s
  Bas: 0%
  Eos: 1%
  Fbg: 296.2 mg/dL
  Hb: 13.3 g/dL
  Ht: 40.1%
  Lym: 82.4%
  MCH: 21.1 pg
  MCHC: 33%
  MCV: 63.7 fL
  Mono: 2.2%
  Neu: 13.6%
  PT: 13.6 s
  Plat: 120.9 x10_4/uL
  RBC: 630.4 x10_4/ul
  Ret: 7.8%
  WBC: 100.3 x10_2/uL
  KIDNEY_L: 1 g
  KIDNEY_R: 1 g
  KIDNEY_TOTAL: 1.9 g
  LIVER: 10.7 g
  ALP: 1883.2 IU/L
  ALT: 37.2 IU/L
  AST: 66.2 IU/L
  BUN: 15.2 mg/dL
  CRE: 0.2 mg/dL
  Ca: 11.1 mg/dL
  Cl: 104.4 meq/L
  DBIL: 0.008 mg/dL
  GLC: 179 mg/dL
  IP: 7.9 mg/dL
  K: 4.2 meq/L
  LDH: 106.8 IU/L
  PL: 161.8 mg/dL
  RALB: 2.6 g/dL
  TBIL: 0.038 mg/dL
  TC: 81.8 mg/dL
  TG: 122.2 mg/dL
  TP: 5.7 g/dL
  gamma-GTP: 1 IU/L
300 mg/kg, 3 h, dose level Low
  TERMINAL_BW: 214.8 g
  APTT: 17.3 s
  Bas: 0.4%
  Eos: 1%
  Hb: 14.3 g/dL
  Ht: 42.8%
  Lym: 73.2%
  MCH: 20.6 pg
  MCHC: 33.3%
  MCV: 62.2 fL
  Mono: 2.6%
  Neu: 22.8%
  PT: 14 s
  Plat: 134.5 x10_4/uL
  RBC: 689.2 x10_4/ul
  Ret: 8.6%
  WBC: 59.5 x10_2/uL
  KIDNEY_L: 1 g
  KIDNEY_R: 1 g
  KIDNEY_TOTAL: 1.9 g
  LIVER: 9.3 g
  ALP: 1454.6 IU/L
  ALT: 38.2 IU/L
  AST: 72 IU/L
  BUN: 8.4 mg/dL
  CRE: 0.2 mg/dL
  Ca: 10.9 mg/dL
  Cl: 101 meq/L
  DBIL: 0 mg/dL
  GLC: 206.6 mg/dL
  IP: 11.3 mg/dL
  K: 3.7 meq/L
  LDH: 77.4 IU/L
  Na: 141.6 meq/L
  PL: 152.4 mg/dL
  RALB: 2.6 g/dL
  TBIL: 0.034 mg/dL
  TC: 83.2 mg/dL
  TG: 78.2 mg/dL
  TP: 5.7 g/dL
  gamma-GTP: 1.4 IU/L
300 mg/kg, 6 h, dose level Low
  TERMINAL_BW: 205.3 g
  APTT: 16.7 s
  Bas: 0%
  Eos: 0.2%
  Fbg: 332.4 mg/dL
  Ht: 43.8%
  Lym: 74%
  MCH: 21.2 pg
  MCHC: 33.7%
  MCV: 62.9 fL
  Mono: 2.4%
  PT: 14.2 s
  Plat: 124.8 x10_4/uL
  RBC: 696 x10_4/ul
  Ret: 8.3%
  WBC: 66.9 x10_2/uL
  KIDNEY_L: 1 g
  KIDNEY_R: 0.9 g
  KIDNEY_TOTAL: 1.9 g
  LIVER: 9.1 g
  ALP: 1428.2 IU/L
  ALT: 39 IU/L
  AST: 71.2 IU/L
  BUN: 9.6 mg/dL
  CRE: 0.1 mg/dL
  Ca: 11.1 mg/dL
  Cl: 101.2 meq/L
  DBIL: 0 mg/dL
  GLC: 198.4 mg/dL
  IP: 10.1 mg/dL
  K: 3.7 meq/L
  LDH: 80.4 IU/L
  Na: 140.4 meq/L
  PL: 152.6 mg/dL
  RALB: 2.7 g/dL
  TBIL: 0.046 mg/dL
  TC: 94.2 mg/dL
  TG: 35.6 mg/dL
  TP: 5.8 g/dL
  gamma-GTP: 1 IU/L
300 mg/kg, 9 h, dose level Low
  TERMINAL_BW: 204.1 g
  APTT: 17.8 s
  Bas: 0%
  Eos: 0.6%
  Fbg: 313.2 mg/dL
  Hb: 14.4 g/dL
  Ht: 42.3%
  Lym: 72.2%
  MCH: 21 pg
  MCV: 61.6 fL
  Mono: 4.2%
  Neu: 22.2%
  PT: 13.9 s
  Plat: 119.6 x10_4/uL
  RBC: 686.6 x10_4/ul
  Ret: 8.4%
  WBC: 60.7 x10_2/uL
  KIDNEY_L: 0.9 g
  KIDNEY_R: 0.9 g
  KIDNEY_TOTAL: 1.8 g
  LIVER: 8.5 g
  ALP: 1326.6 IU/L
  ALT: 33.4 IU/L
  AST: 65.4 IU/L
  BUN: 11.6 mg/dL
  CRE: 0.2 mg/dL
  Ca: 11.1 mg/dL
  Cl: 99 meq/L
  DBIL: 0.008 mg/dL
  GLC: 210.8 mg/dL
  IP: 8.8 mg/dL
  K: 4 meq/L
  LDH: 93 IU/L
  Na: 139 meq/L
  PL: 163.2 mg/dL
  RALB: 2.7 g/dL
  TBIL: 0.062 mg/dL
  TC: 94.8 mg/dL
  TG: 50.6 mg/dL
  TP: 5.8 g/dL
  gamma-GTP: 1.4 IU/L
[5]
  TERMINAL_BW: 210.4 g
  APTT: 16.7 s
  Bas: 0%
  Eos: 1%
  Fbg: 297.4 mg/dL
  Hb: 13.9 g/dL
  Ht: 41.5%
  Lym: 77.4%
  MCH: 20.7 pg
  MCHC: 33.4%
  MCV: 62.2 fL
  Mono: 2.6%
  Neu: 18.6%
  PT: 14.1 s
  Plat: 126.5 x10_4/uL
  RBC: 668.8 x10_4/ul
  Ret: 7.5%
  WBC: 86.4 x10_2/uL
  KIDNEY_L: 1 g
  KIDNEY_R: 1 g
  KIDNEY_TOTAL: 1.9 g
  LIVER: 9.2 g
  ALP: 1966 IU/L
  ALT: 44.4 IU/L
  AST: 83 IU/L
  BUN: 14.4 mg/dL
  CRE: 0.2 mg/dL
  Ca: 11.1 mg/dL
  Cl: 105 meq/L
  DBIL: 0.01 mg/dL
  GLC: 168.6 mg/dL
  IP: 7.7 mg/dL
  K: 4.4 meq/L
  LDH: 149.6 IU/L
  Na: 144 meq/L
  PL: 166 mg/dL
  RALB: 2.6 g/dL
  TBIL: 0.05 mg/dL
  TC: 87.8 mg/dL
  TG: 84.4 mg/dL
